Results published in patent publication US12091399B2, “Phenyltetrazole derivatives as plasma kallikrein inhibitors” (Boehringer Ingelheim International GmbH, priority 2018, dated 2024).

Target: Human FIIa (Homo sapiens (Human), UniProt P00734)
Experiment: Inhibition of FIIa (Ki)
Type: biochemical
Conditions: substrate KM, enzyme FIIa
Procedure: The ability of compounds of formula (I) to inhibit plasma kallikrein (PKK), Factor XIIa (FXIIa), Factor XIa (FXIa), Factor Xa (FXa), Factor IIa (alpha-thrombin; FIIa), plasmin, trypsin, tissue kallikrein 1 (TK1), Factor Vila (FVIIa), or FVIIa complexed with Tissue Factor, phospholipids and CaCl2) (FVIIa/TF/PL/CaCl2) was determined using the following biochemical assays in assay buffer (100 mM Tris, 150 mM NaCL, adjusted to a pH of 7.8 with HCl, and containing 0.1% (w/v) BSA and 0.05% (v/v) Tween20) in the presence of 1% (v/v) DMSO:
Human FIIa (44.6 nM or 5 U/mL; Enzyme Research Laboratories) was incubated at 24° C. with 0.5 mM chromogenic Substrate S2238 (Chromogenix) and various concentrations of the test compound in assay buffer. Measurements were performed in a kinetic interval every 2nd minute for 16 min using a Spectramax M5 (Molecular Devices) measuring the optical absorbance at 405 nm.
The pIC50 values were then fitted using a four-parametric fitting procedure using GraphPad Prism (version 6; GraphPad Software, Inc.). Respective Ki values were obtained by correction of the IC50 values for the respective KM value of the used substrate (see Table A for the obtained KM values of the used substrates) using the following formula: […]

NC(N)=NCCC[C@H](NC(=O)[C@@H]1CCCCN1C(=O)[C@H](N)Cc1ccccc1)C(=O)Nc1ccc([N+](=O)[O-])cc1 [Example S2238]
Km: 1250 µM
